The text below walks through data of patent US7893068B2, “Physiologically active substances” (Mercian Corporation, priority 2002, dated 2011).

Data set [1] is described as follows: Body weight loss (acute toxicity) in the WiDr tumor model. The data set is classed as in vivo, nude mice. The following applies: intravenous 5 consecutive days, body weight relative to Day 1. From the text: (§1) In order to study solid tumor growth inhibitory activities of the compounds of the formula (I) in vivo, WiDr human colon cancer cells were implanted subcutaneously into the flanks of nude mice. […]. The animals were grouped so that the average of the volumes of the respective groups became uniform, when it reached about 100 mm^3. Control group was made up of 10 mice and 11107D-administering groups were made up of 5 mice. The derivatives were administered for the administering groups for 5 consecutive days by intravenous injection so as to be any of 0.625 mg, 1.25 mg, 2.5 mg, 5 mg and 10 mg/kg/day, and a vehicle was administered to the control group. The tumor volumes on Day 15 were measured, and relative tumor volume ratios (T/C %) were determined setting the tumor volume of the control group as 100%. The body weights on Day 1, Day 5, Day 8, Day 12 and Day 15 (or 16) were measured, and relative body weight variations were determined setting the body weight on Day 1 as 100%. The relative body weight ratios on the day where the body weight reached the minimum were defined as the minimum relative weight ratios and are shown in Table 3.

Data set [2] in a line: Stability in an aqueous solution (HPLC residual ratio). The following applies: for Peak area (mAU × sec) after 24 hours / The residual ratios (%): Britton-Robinson's buffer pH 7, 25° C., 24 hours; for Peak area (mAU × sec) initial: Britton-Robinson's buffer pH 7, before incubation.
Data set [3] has as its system WiDr human colon cancer cells. In words: Solid tumor growth inhibitory activities, WiDr human colon tumor model in nude mice. The data set is classed as in vivo. Particulars: Mus musculus, 360 h.
Excerpt: as §1

For the next data set, the system named is VEGF promoter. The experiment in a line: VEGF transcription-suppressing activity (VEGF promoter-PLAP reporter, U251/1-8 cells, hypoxia). The data set is classed as cell-based. Particulars: Homo sapiens, read-out: VEGF transcription-suppressing activities (IC50: nM). From the text: In order to prepare reporter system reflecting transcription from VEGF promoter, VEGF promoter sequence was cloned, and inserted in secretory alkaline phosphatase (PLAP) vector to construct reporter vector.
In order to obtain the promoter region of human VEGF, VEGF genomic DNA was cloned from phage library. PCR primers having the sequences described in Sequence Numbers 1 and 2 were designed based on VEGF cDNA (GenBank accession number: X62568) and a fragment having about 340 bp was obtained by carrying out PCR. Human genomic phage library (Human genomic library, Clontech Co.) was screened using this as a probe to obtain VEGF genomic DNA. The DNA was digested by EcoRI, and the resultant fragments were inserted in the EcoRI site of pUC18. Finally, pUC18-VEGFA containing about 5.4 kb of VEGF 5′ flanking region was obtained. The pUC18-VEGFA was digested by KpnI/NheI, VEGF promoter region of about 2.3 kb obtained was inserted in the multi cloning site KpnI/NheI of secretory alkaline phosphatase (PLAP) vector (Goto et al, Mol. Pharmacol., 49, 860-873, 1996), and thus, VEGF-PLAP vector was constructed.
The above-mentioned VEGF-PLAP vector was transfected in the U251 cell cultured in the DULBECCO-modified eagle medium (DMEM; manufactured by SIGMA Co., Ltd.) containing 10% fetal calf serum, and the cells were cultured in the presence of 1 mg/mL G418 (Merck Co.) to establish G418 resistant stable clone (U251/1-8 cell).
It was confirmed that U251/1-8 cell secreted PLAP under hypoxic condition (2% O2 incubator) in the same manner as in the report (Cell. Mol. Biol. Res. 40, 35-39, 1994) and was a reporter system reflecting the transcription from VEGF promoter. The screening of the compound suppressing VEGF production which was induced by hypoxic stimulation was carried out below using the clone.
In order to remove the influence of alkaline phosphates in serum, U251/1-8 cells were rinsed twice with the adequate amount of PBS (Phosphate buffered saline), diluted in the DMEM medium containing 10% of serum in which alkaline phosphates was inactivated by the treatment of 65° C. for 20 min., and dispensed in 96-well plates by 4×10^4 cells/180 μL.
After culturing at 37° C. overnight in a CO2 incubator (5% CO2), 20 μL of the above-mentioned incubation solution containing the test compound diluted with 3-fold succession was added, and then they were incubated in a hypoxic (2% […]) incubator for 18 hours. With respect to the PLAP activity in the culture supernatants, 10 μL of the supernatants was added to 50 μL of 0.28 M Na2CO3—NaHCO3 buffer solution (pH 10.0, 8.0 mM MgSO4), and finally 50 μL of alkaline phosphatase substrate (LUMISTEIN, Genomescience Co.) was added. After reacting for one hour, the alkaline phosphatase activity of the PLAP was measured by detecting the chemical luminescence by a micro plate reader (Perkin-Elmer Co.). The PLAP activity under normoxia was set as 0%, the PLAP activity of cell which was treated under hypoxia was set as 100%, and the concentration suppressing the PLAP activity by 50% was set as the IC50 value of PLAP. The IC50 values of 11107D derivatives shown in Examples were measured, and the IC50 values of representative 11107D derivatives are shown in Table 1.

For data set [4], the system named is WiDr human colon cancer cells. The experiment in a line: Growth inhibitory activities on WiDr human colon cancer cells (MTT). The data set is classed as cell-based. Particulars: 72 h, three days incubation. On the procedure:
WiDr human colon cancer cells cultured in DULBECCO-modified eagle medium (DMEM; manufactured by SIGMA Co., Ltd.) containing 10% fetal calf serum, penicillin (100 unit/mL) and streptomycin (100 μg/mL) were dispensed in 96-well plates by 2×10^3 cells/well. After culturing overnight in a CO2 incubator, 20 μL of the above-mentioned incubation solution containing the test compound diluted with 3-fold succession was added, followed by incubation. After three days, 50 μL of 3.3 mg/mL MTT solution was added, followed by culturing for further one hour. Then, formazan formed by the reduction by the action of living cells was extracted with 100 μL of DMSO, the absorbance (A540/A660) was determined and was set as the index of the number of living cells.
The concentrations of the compounds of the formula (I) at which the growth of WiDr human colon cancer cells are inhibited 50% were determined.

A short description of data set [5]: Physico-chemical properties: solubility. The data set is classed as physicochemical. Here is the method:
The physico-chemical properties of 11107D are shown below. The structure of 11107D was determined as shown below.

[6] abbreviates: iv, read-out: Growth inhibitory activities in the WiDr human solid tumor model (T/C %).

Like-named read-outs stand apart in the source and are kept apart here.

By IC50 is commonly meant the concentration needed to halve the response being measured.

`CCC(O)C(C)C1OC1CC(C)(O)/C=C/C=C(\C)C1OC(=O)CC(O)CCC(C)(O)C(OC(=O)N2CCCN(C)CC2)/C=C/C1C` (stereo not drawn) [Compound 9, (8E,12E,14E)-3,6,16,21-Tetrahydroxy-6,10,12,16,20-pentamethyl-7-((4-methylhomopiperazin-1-yl)carbonyl)oxy-18,19-epoxytricosa-8,12,14-trien-11-olide]: the “the minimum relative weight ratios” value in data set [1] (Dose 5.0 mg/kg) worked out at 0.86. In data set [2], the “Peak area (mAU × sec) after 24 hours” value is 5476 mAU × sec, the “The residual ratios (%)” value was determined as 96.2% and the “Peak area (mAU × sec) initial” value came to 5690 mAU × sec. In data set [3] (setting [6]), the response vs control in vivo at 5 mg/kg stood at 10%. Moreover, the half-maximal inhibitory concentration (IC50) in the data set with VEGF promoter (U-251, 18 h) came out at 12.9 nM. The IC50 in data set [4] came out at 5.5 nM.

Take `CCC(OC)C(C)C1OC1CC(C)(O)/C=C/C=C(\C)C1OC(=O)CC(O)CCC(C)(O)C(OC(=O)N2CCN(C)CC2)/C=C/C1C` (stereo not drawn) [Compound 131, (8E,12E,14E)-3,6,16-Trihydroxy-21-methoxy-6,10,12,16,20-pentamethyl-7-((4-methylpiperazin-1-yl)carbonyl)oxy-18,19-epoxytricosa-8,12,14-trien-11-olide]: the “the minimum relative weight ratios” value in data set [1] (Dose 2.5 mg/kg) turned out to be 0.83. In data set [2], the “Peak area (mAU × sec) after 24 hours” value is 157 mAU × sec, the “The residual ratios (%)” value was 93.2% and the “Peak area (mAU × sec) initial” value turned out to be 168 mAU × sec. Further, the response vs control in vivo at 2.5 mg/kg in data set [3] (setting [6]) turned out to be 28%. Besides, the IC50 in the data set with VEGF promoter (U-251, 18 h) was determined as 1.7 nM. For the same compound, 0.7 nM corresponded to half-maximal inhibition in data set [4] (IC50).

On to `CCC(O)C(C)C1OC1CC(C)(O)/C=C/C=C(\C)C1OC(=O)CC(O)CCC(C)(O)C(OC(=O)N(C)CCN(CC)CC)/C=C/C1C` (stereo not drawn) [Compound 75, (8E,12E,14E)-7-(N-(2-(N′,N′-Diethylamino)ethyl)-N-methylcarbamoyloxy)-3,6,16,21-tetrahydroxy-6,10,12,16,20-pentamethyl-18,19-epoxytricosa-8,12,14-trien-11-olide], for which the “the minimum relative weight ratios” value in data set [1] (Dose 5.0 mg/kg) turned out to be 0.82. Besides, in data set [2], the “Peak area (mAU × sec) after 24 hours” value was determined as 2478 mAU × sec, the “The residual ratios (%)” value is listed as 95.5% and the “Peak area (mAU × sec) initial” value is 2594 mAU × sec. In data set [3] (setting [6]), the response vs control in vivo at 5 mg/kg came out at 17%. Also, the half-inhibitory concentration (IC50) with VEGF promoter (U-251, 18 h) is 9.1 nM. Further, in data set [4], the IC50 came out at 4.1 nM.

On to `CCC(O)C(C)C1OC1CC(C)(O)/C=C/C=C(\C)C1OC(=O)CC(O)CCC(C)(O)C(OC(=O)N2CCC(N3CCCCC3)CC2)/C=C/C1C` (stereo not drawn) [Compound 22, (8E,12E,14E)-3,6,16,21-Tetrahydroxy-6,10,12,16,20-pentamethyl-7-((4-(piperidin-1-yl)piperidin-1-yl)carbonyl)oxy-18,19-epoxytricosa-8,12,14-trien-11-olide], for which the “the minimum relative weight ratios” value in data set [1] (Dose 5.0 mg/kg) amounted to 0.74. Also, in data set [2], the “Peak area (mAU × sec) after 24 hours” value turned out to be 4514 mAU × sec, the “The residual ratios (%)” value amounted to 95.8% and the “Peak area (mAU × sec) initial” value was found to be 4713 mAU × sec. Further, the response vs control in vivo at 5 mg/kg in data set [3] (setting [6]) worked out at 39%. The half-maximal inhibitory concentration (IC50) with VEGF promoter (U-251, 18 h) came out at 25.6 nM. Moreover, in data set [4], the IC50 is 14.6 nM.

Take `CCC(O)C(C)C1OC1CC(C)(O)/C=C/C=C(\C)C1OC(=O)CC(O)CCC(C)(OC)C(OC(=O)N2CCC(N3CCCCC3)CC2)/C=C/C1C` (stereo not drawn) [Compound 109, (8E,12E,14E)-3,16,21-Trihydroxy-6-methoxy-6,10,12,16,20-pentamethyl-7-((4-(piperidin-1-yl)piperidin-1-yl)carbonyl)oxy-18,19-epoxytricosa-8,12,14-trien-11-olide]: the “the minimum relative weight ratios” value in data set [1] (Dose 0.625 mg/kg) is 0.89. Also, in data set [2], the “Peak area (mAU × sec) after 24 hours” value is listed as 2111 mAU × sec, the “The residual ratios (%)” value is 94.9% and the “Peak area (mAU × sec) initial” value came out at 2224 mAU × sec. Further, the response vs control in vivo at 0.625 mg/kg in data set [3] (setting [6]) was 36%. The IC50 in the data set on VEGF promoter (U-251, 18 h) came to 3.3 nM. The IC50 in data set [4] worked out at 1.5 nM.

For the compound `CCC(O)C(C)C1OC1CC(C)(O)/C=C/C=C(\C)C1OC(=O)CC(O)CCC(C)(O)C(OC(=O)N2CCN(C3CCCCCC3)CC2)/C=C/C1C` (stereo not drawn) [Compound 45, (8E,12E,14E)-7-((4-Cycloheptylpiperazin-1-yl)carbonyl)oxy-3,6,16,21-tetrahydroxy-6,10,12,16,20-pentamethyl-18,19-epoxytricosa-8,12,14-trien-11-olide], the “the minimum relative weight ratios” value in data set [1] (Dose 5.0 mg/kg) was found to be 0.90. In data set [2], the “Peak area (mAU × sec) after 24 hours” value was 5024 mAU × sec, the “The residual ratios (%)” value is reported as 95.0% and the “Peak area (mAU × sec) initial” value came to 5291 mAU × sec. Also, in data set [3] (Dose 5.0 mg/kg, intravenous injection 5 consecutive days, tumor volume Day 15, read-out: Growth inhibitory activities in the WiDr human solid tumor model (T/C %)), the response vs control in vivo at 5 mg/kg is 20%. For the same compound, the IC50 in the data set on VEGF promoter (U-251, U251/1-8 cells, hypoxic incubator 18 hours, PLAP activity) is 1.9 nM. This compound showed a 50% inhibitory concentration (IC50) in data set [4] of 0.7 nM.

On to `CCC(O)C(C)C1OC1CC(C)(O)/C=C/C=C(\C)C1OC(=O)CC(O)CCC(C)(O)C(OC(C)=O)/C=C/C1C` (stereo not drawn) [Compound 11107D, (8E,12E,14E)-7-acetoxy-3,6,16,21-tetrahydroxy-6,10,12,16,20-pentamethyl-18,19-epoxytricosa-8,12,14-trien-11-olide], for which, in data set [2], the “Peak area (mAU × sec) after 24 hours” value is recorded as 3817 mAU × sec, the “The residual ratios (%)” value is 95.6% and the “Peak area (mAU × sec) initial” value is 3994 mAU × sec. In data set [2] (aqueous solution), the “Stability in an aqueous solution” value is given as “stable even in an aqueous solution”. The “Solubility in organic solvents” value in data set [5] (dimethyl sulfoxide, pyridine, methanol and acetone) was “soluble”. Also, the Solubility in water entry in data set [5] (water) is “slightly soluble”.
